Measurements reported in paper PMC10113987, “A tool for nuclear imaging of the SARS-CoV-2 entry receptor: molecular model and preclinical development of ACE2-selective radiopeptides” (EJNMMI Research, 2023).
Like-named read-outs stand apart in the source and are kept apart here. Positions of bridges follow the written chain, without caps; N, C: chain ends. Residues, ends and D or L forms follow the SMILES beside them. *: point of attachment. DOTA = O=C(O)CN1CCN(CC(=O)O)CCN(CC(=O)*)CCN(CC(=O)O)CC1; NODAGA = O=C(O)CN1CCN(CC(=O)O)CCN(C(CCC(=O)*)C(=O)O)CC1; Ahx = NCCCCCC(=O)O

Key:
[1] = In vitro stability in mouse blood plasma (TLC); assay type: in vitro ADME; conditions: 37 °C
Experimental: The ^67Ga-labeled DX600-radiopeptides (20 MBq/nmol) were incubated in human and mouse plasma (10 MBq/200 µL), respectively, at 37 °C. Aliquots were taken at variable time points up to 24 h for analysis using reversed phase thin layer chromatography (TLC) with citrate buffer (0.1 M, pH 5.5) as a mobile phase. Images of the TLC plates were obtained using a storage phosphor system (Cyclone Plus, PerkinElmer) and quantified using the OptiQuant software (version 5.0, Bright Instrument Co Ltd., PerkinElmer™) (Supplementary Information).
The radiopeptides were prepared and TLC experiments were performed immediately after radiolabeling by applying the diluted radiopeptides in saline (1 µL; ~0.05 MBq) and [^67Ga]GaCl3 solution (1 µL; ~0.05 MBq) on the TLC plates. The radiopeptides were incubated in mouse or human plasma (10 MBq/200 µL) at 37° C. TLC was performed with an aliquot of the plasma samples at the given timepoints (30 min, 1 h, 3 h and 24 h). The TLC plates were exposed to a phosphor screen followed by development using a storage phosphor system (Cyclone Plus, PerkinElmer). The quantification of the signals was carried out using the OptiQuant software (version 5.0, Bright Instrument Co Ltd., PerkinElmer^TM). The obtained chromatograms were analyzed by determination of the peak area of the radiolabeled peptide, the released gallium-67 as well as degradation products of unknown structure. The quantity of the intact product was expressed as percentage of the sum of integrated peak areas of the entire chromatogram.

[2] = Biodistribution in HEK-ACE2/HEK-ACE xenografted mice; assay type: in vivo, mouse; conditions: female, CD1/nude, mouse, iv, 0.5 nmol, total radioactivity, 3 h after i.v. injection, decay-corrected, n = 3
Experimental: (§1) All applicable international, national, and/or institutional guidelines for the care and use of animals were followed. In particular, all animal experiments were carried out according to the guidelines of the Swiss Regulations for Animal Welfare. Preclinical studies have been ethically approved by the Cantonal Committee of Animal Experimentation and permitted by the responsible cantonal authorities (License N° 75743). Five-week-old female CD1/nude mice and female immunocompetent FVB mice were obtained from Charles River Laboratories (Sulzfeld, Germany) and fed with standard rodent chow ad libitum. CD1/nude were subcutaneously inoculated with HEK-ACE2 cells (6–8 × 10^6 cells in 100 µL PBS) on the right shoulder and approximately one week later with HEK-ACE (4 × 10^6 cells in 100 µL PBS) on the left shoulder. Imaging and biodistribution studies were performed 2–4 weeks later when the xenografts reached a size of 100–300 mm^3.
(§2) Biodistribution studies in xenograft-bearing mice were performed 2–4 weeks after cell inoculation. Mice were intravenously injected with [^67Ga]Ga-DOTA-DX600, [^67Ga]Ga-NODAGA-DX600, [^67Ga]Ga-HBED-CC-DX600 or [^67Ga]Ga-DOTA-BPP9a (3 MBq, 0.5 nmol, 100 µL) diluted in NaCl 0.9% containing 0.05% BSA. The mice were sacrificed 3 h after administration of the radiopeptides. Selected tissues and organs were collected, weighed and counted using a γ-counter. The results were listed as a percentage of the injected activity per gram of tissue mass (% IA/g), using counts of a defined volume of the original injection solution measured simultaneously, resulting in decay-corrected values. Statistical analysis was performed by applying a one‐way ANOVA test with a Tukey’s multiple comparisons post‐test (GraphPad Prism software, version 8.3.1).

[3] = test system: HEK-ACE2/HEK-ACE-xenografted mice; test: as above; assay type: in vivo, mouse; conditions: for HEK-ACE2 xenograft-to-kidney ratio: 3 h after injection
Experimental: as §1, §2

[4] = test system: HEK-ACE2/HEK-ACE-xenografted mice; test: SPECT/CT imaging and quantification of retained activity in HEK-ACE2/HEK-ACE xenografted mice; assay type: in vivo, mouse; conditions: for Activity retained in the kidneys relative to the 1 h p.i.-timepoint: SPECT/CT quantification, non-decay-corrected
Experimental: as §1
SPECT/CT imaging was performed using a four-head, multiplexing, multipinhole small-animal SPECT camera (NanoSPECT/CT™, Mediso Medical Imaging Systems, Budapest, Hungary). Each head was outfitted with a tungsten-based aperture of nine 1.4 mm-diameter pinholes and a thickness of 10 mm. CT scans of 7.5 min duration were followed by SPECT scans of ~ 50 min performed 1 h, 3 h and 24 h after injection of the respective radiopeptide (10 MBq, 0.5 nmol, 100 μL), diluted in NaCl 0.9% containing 0.05% BSA. During the scan, mice were anesthetized with a mixture of isoflurane and oxygen. The images were acquired using Nucline software (version 1.02, Mediso Ltd., Budapest, Hungary). The real-time CT reconstruction used a cone-beam-filtered backprojection. The reconstruction of SPECT data was performed with the HiSPECT software (version 1.4.3049, Scivis GmbH, Göttingen, Germany) using γ-energies of 93.20 keV (± 10%), 184.60 keV (± 10%) and 300.00 keV (± 10%) for gallium-67. All images were prepared using the VivoQuant post-processing software (version 3.0, inviCRO Imaging Services and Software, Boston, US). A Gauss post-reconstruction filter (full width at half maximum, 1 mm) was applied, and the scale of activity for gallium-67 was set as indicated on the SPECT/CT images. In order to estimate the wash-out of the DX600-based radiopeptides from the HEK-ACE2 xenografts and kidneys over time, the absolute amount of activity was determined in these tissues using the VivoQuant quantification tool. The accumulated activity (non-decay-corrected value in MBq) in the xenografts and kidneys, respectively, obtained at the 1 h p.i. timepoint was set as 100%. The percentage of activity retained in these tissues was determined at 3 h and 24 h p.i. based on the absolute activity determined at these timepoints.

[5] = HEK-ACE2 xenograft, read-out: Biodistribution: ACE2 xenograft (HEK-ACE2)
[6] = blood, read-out: Biodistribution: blood
[7] = bone, read-out: Biodistribution: bone
[8] = heart, read-out: Biodistribution: heart
[9] = intestines, read-out: Biodistribution: intestines
[10] = kidneys, read-out: Biodistribution: kidneys (renal retention)
[11] = liver, read-out: Biodistribution: liver
[12] = lung, read-out: Biodistribution: lung
[13] = muscle, read-out: Biodistribution: muscle
[14] = salivary glands, read-out: Biodistribution: salivary glands
[15] = spleen, read-out: Biodistribution: spleen
[16] = stomach, read-out: Biodistribution: stomach
[17] = HEK-ACE xenograft, read-out: Biodistribution: ACE xenograft (HEK-ACE)
[18] = 3 h after i.v. injection, decay-corrected, n = 3

Structure (SMILES)	Intact radiopeptide in mouse blood plasma ([1]; 3 h) [%]	Intact radiopeptide in mouse blood plasma ([1]; 24 h) [%]	tissue uptake at 3 h [2, 5] [%ID/g]	tissue uptake at 3 h [2, 6] [%ID/g]	tissue uptake at 3 h [2, 7] [%ID/g]	tissue uptake at 3 h [2, 8] [%ID/g]	tissue uptake at 3 h [2, 9] [%ID/g]	tissue uptake at 3 h [2, 10] [%ID/g]	tissue uptake at 3 h [2, 11] [%ID/g]	tissue uptake at 3 h [2, 12] [%ID/g]	tissue uptake at 3 h [2, 13] [%ID/g]	tissue uptake at 3 h [2, 14] [%ID/g]	tissue uptake at 3 h [2, 15] [%ID/g]	tissue uptake at 3 h [2, 16] [%ID/g]	HEK-ACE2 xenograft-to-kidney ratio [3]	Activity retained in the kidneys relative to the 1 h p.i.-timepoint ([4]; 3 h p.i.)	Activity retained in the kidneys relative to the 1 h p.i.-timepoint ([4]; 24 h p.i.)	tissue uptake at 3 h [2, 17] [%ID/g]	other results
CC(=O)N[C@@H](CCCCNC(=O)CCC(C(=O)O)N1CCN(CC(=O)O)CCN(CC(=O)O)CC1)C(=O)NCC(=O)N[C@@H](CC(=O)O)C(=O)N[C@@H](Cc1ccc(O)cc1)C(=O)N[C@@H](CO)C(=O)N[C@@H](Cc1c[nH]cn1)C(=O)N[C@H]1CSSC[C@@H](C(=O)N[C@H](C(=O)N[C@@H](Cc2ccc(O)cc2)C(=O)N2CCC[C@H]2C(=O)N[C@@H](CC(=O)O)C(=O)N2CCC[C@H]2C(=O)N[C@@H](CCC(=O)O)C(=O)NCC(=O)NCC(=O)NCC(N)=O)[C@@H](C)O)NC(=O)[C@H](CCCCN)NC(=O)[C@H](Cc2c[nH]c3ccccc23)NC(=O)[C@H](Cc2c[nH]c3ccccc23)NC(=O)[C@@H]2CCCN2C(=O)[C@H](Cc2ccc(O)cc2)NC(=O)[C@H](Cc2ccc(O)cc2)NC(=O)[C@H](CCCNC(=N)N)NC(=O)[C@H](CC(C)C)NC(=O)[C@@H]2CCCN2C(=O)[C@H](CO)NC1=O (stereo partly shown) [[^67Ga]Ga-NODAGA-DX600, metal not drawn] (Ac-K(NODAGA)GDYSHCSPLRYYPWWKCTYPDPEGGG-NH2; disulfide 7-18)	97 ± 1	36 ± 7	15.5 ± 2.2	0.02 ± 0.01	0.04 ± 0.01	0.04 ± 0.01	0.13 ± 0.07	~24	0.25 ± 0.04	0.08 ± 0.01	0.02 ± 0.01	0.05 ± 0.01	0.08 ± 0.01	0.06 ± 0.03	0.67 ± 0.16	~ 85%	35–45%		
CC[C@H](C)[C@H](NC(=O)[C@H](CCC(N)=O)NC(=O)[C@@H]1CCCN1C(=O)[C@H](CCCNC(=N)N)NC(=O)[C@@H]1CCCN1C(=O)[C@H](Cc1c[nH]c2ccccc12)NC(=O)[C@H](CCC(=O)O)NC(=O)CCCCCNC(=O)CCCCCNC(=O)CN1CCN(CC(=O)O)CCN(CC(=O)O)CCN(CC(=O)O)CC1)C(=O)N1CCC[C@H]1C(=O)N1CCC[C@H]1C(=O)O [[^67Ga]Ga-DOTA-BPP9a, metal not drawn] ({DOTA-Ahx-Ahx}-EWPRPQIPP-OH)				0.05 ± 0.01	0.04 ± 0.01	0.03	0.06 ± 0.02	3.22 ± 0.8	0.09 ± 0.01	0.13 ± 0.03	0.02 ± 0.01	0.04 ± 0.01	0.08 ± 0.04	0.06 ± 0.05				3.17 ± 0.29	Biodistribution: ACE2 xenograft (HEK-ACE2) [3, 18]: < 0.5 % IA/g; Biodistribution: ACE2 xenograft (HEK-ACE2) ([3]; 3 h after i.v. injection, decay-corrected, n = 3, listed as [^67Ga]Ga-DOTA- BPP9a): 0.19 ± 0.19 % IA/g; Uptake in HEK-ACE2 xenografts on SPECT/CT images ([4]; 1 h and 3 h after injection): no uptake; Uptake in HEK-ACE xenografts on SPECT/CT images ([4]; 1 h and 3 h after injection): accumulation
CC(=O)N[C@@H](CCCCNC(=O)CN1CCN(CC(=O)O)CCN(CC(=O)O)CCN(CC(=O)O)CC1)C(=O)NCC(=O)N[C@@H](CC(=O)O)C(=O)N[C@@H](Cc1ccc(O)cc1)C(=O)N[C@@H](CO)C(=O)N[C@@H](Cc1c[nH]cn1)C(=O)N[C@H]1CSSC[C@@H](C(=O)N[C@H](C(=O)N[C@@H](Cc2ccc(O)cc2)C(=O)N2CCC[C@H]2C(=O)N[C@@H](CC(=O)O)C(=O)N2CCC[C@H]2C(=O)N[C@@H](CCC(=O)O)C(=O)NCC(=O)NCC(=O)NCC(N)=O)[C@@H](C)O)NC(=O)[C@H](CCCCN)NC(=O)[C@H](Cc2c[nH]c3ccccc23)NC(=O)[C@H](Cc2c[nH]c3ccccc23)NC(=O)[C@@H]2CCCN2C(=O)[C@H](Cc2ccc(O)cc2)NC(=O)[C@H](Cc2ccc(O)cc2)NC(=O)[C@H](CCCNC(=N)N)NC(=O)[C@H](CC(C)C)NC(=O)[C@@H]2CCCN2C(=O)[C@H](CO)NC1=O [[^67Ga]Ga-DOTA-DX600, metal not drawn] (Ac-K(DOTA)GDYSHCSPLRYYPWWKCTYPDPEGGG-NH2; disulfide 7-18)	95 ± 3	20 ± 13	10.7 ± 0.4	0.06 ± 0.01	0.06 ± 0.01	0.04 ± 0.01	0.09 ± 0.04	~24	0.22 ± 0.01	0.14 ± 0.06	0.02	0.05 ± 0.01	0.09 ± 0.01	0.04 ± 0.01	0.45 ± 0.02	~ 85%	35–45%	< 0.5	Release of gallium-67 in mouse blood plasma ([1]; 3 h): ~ 4%; Release of gallium-67 in mouse blood plasma ([1]; 24 h): > 50%; Intact radiopeptide in mouse blood plasma ([1]; first hour): intact; Biodistribution: ACE xenograft (HEK-ACE) [3, 18]: 0.32 ± 0.18 % IA/g
